According to the supplement of paper PMC11061612:

Columns and labels:
Experiment in all cases: Bliss excess, mean over the matrix (fraction); higher = more synergy
[1] = tested on: KATOIII (Gastric Carcinoma)
Procedure, shortened: (§1)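 Cell lines in DMEM/F12 or RPMI with 10% FBS were plated in 1536-well plates, held 24 hours at 37°C, 5% CO2, then given two-drug dose matrices for 72 hours (DMSO typically 0.2%). Viability was read by CellTiter-Glo 2.0 luminescence and scaled as inhibition from 0 (vehicle wells) to 1 (blank wells). Combination Emax is the second-highest inhibition in the matrix; Bliss excess is observed combination effect minus expected EA + EB − EA·EB, EA and EB being single-agent effects.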

[2] = tested on: HT-29 (Colorectal Carcinoma)
Procedure, shortened: as §1

[3] = tested on: SW756 (Cervical Carcinoma)
Procedure, shortened: as §1

[4] = tested on: KARPAS-620 (Plasma Cell Myeloma)
Procedure, shortened: as §1

[5] = tested on: SW1990 (Pancreatic Carcinoma)
Procedure, shortened: as §1

[6] = tested on: U-266 (Plasma Cell Myeloma)
Procedure, shortened: as §1

[7] = tested on: TGBC24TKB (Biliary Tract Carcinoma)
Procedure, shortened: as §1

[8] = tested on: HCC2157 (Breast Carcinoma)
Procedure, shortened: as §1

[9] = tested on: SW1088 (Low Grade Glioma)
Procedure, shortened: as §1

[10] = tested on: MDA-MB-231 (Breast Carcinoma)
Procedure, shortened: as §1

[11] = tested on: SNU-C5 (Colorectal Carcinoma)
Procedure, shortened: as §1

[12] = tested on: NCI-H1793 (Lung Adenocarcinoma)
Procedure, shortened: as §1

J82 (Bladder Carcinoma) = tested on: J82 (Bladder Carcinoma)
Procedure, shortened: as §1

[13] = tested on: LU-99A (Non-Small Cell Lung Carcinoma)
Procedure, shortened: as §1

[14] = tested on: COR-L23 (Non-Small Cell Lung Carcinoma)
Procedure, shortened: as §1

[15] = tested on: CFPAC-1 (Pancreatic Carcinoma)
Procedure, shortened: as §1

CAL-78 (Chondrosarcoma) = tested on: CAL-78 (Chondrosarcoma)
Procedure, shortened: as §1

[16] = tested on: COR-L95 (Small Cell Lung Carcinoma)
Procedure, shortened: as §1

[17] = tested on: CTV-1 (T-Lymphoblastic Leukemia)
Procedure, shortened: as §1

IGR-1 (Melanoma) = tested on: IGR-1 (Melanoma)
Procedure, shortened: as §1

Row | SMILES | Bliss excess [1] | Bliss excess [2] | Bliss excess [3] | Bliss excess [4] | Bliss excess [5] | Bliss excess [6] | Bliss excess [7] | Bliss excess [8] | Bliss excess [9] | Bliss excess [10] | Bliss excess [11] | Bliss excess [12] | Bliss excess (J82 (Bladder Carcinoma)) | Bliss excess [13] | Bliss excess [14] | Bliss excess [15] | Bliss excess (CAL-78 (Chondrosarcoma)) | Bliss excess [16] | Bliss excess [17] | Bliss excess (IGR-1 (Melanoma))
1 | Cc1cc2ncnn2cc1Nc1ncc2c(n1)n(C1CCOCC1)c(=O)n2C [AZD7648] + CCN(CCO)CCCOc1ccc2c(Nc3cc(CC(=O)Nc4cccc(F)c4)[nH]n3)ncnc2c1 [AZD2811] (first compound max 10 µM, 7x7, partner max 1 µM) | -0.0526 | 0.0227 | -0.0209 | 0.0088 | -0.0199 | 0.0204 | -0.0157 | 0.0278 | -0.0312 | 0.0014 | 0.0093 | -0.005 | -0.0488 | 0.0216 | -0.023 | 0.0181 | -0.0053 | -0.003 | 0.0709 | -0.0224
2 | Cc1cc2ncnn2cc1Nc1ncc2c(n1)n(C1CCOCC1)c(=O)n2C [AZD7648] + CN(C)CCCOc1ccc(-c2ccc3ncc4c(c3c2)n(C2CCOCC2)c(=O)n4C)cn1 [AZD0156] (first compound max 10 µM, 7x7, partner max 1 µM) | -0.0204 | 0.0289 | 0.0076 | -0.0373 | -0.0182 | 0.018 | 0.009 | 0.0081 | -0.0698 | 0.0146 | 0.0202 | 0.0044 | -0.0131 | -0.0208 | -0.0212 | 0.0064 | -0.0091 | -0.0218 | 0.0449 | -0.0223
3 | Cc1cc2ncnn2cc1Nc1ncc2c(n1)n(C1CCOCC1)c(=O)n2C [AZD7648] + C[C@@H]1COCCN1C2=NC(=NC(=C2)C3(CC3)[S@](=N)(=O)C)C4=C5C=CNC5=NC=C4 [AZD6738] (first compound max 10 µM, 7x7, partner max 10 µM) | -0.064 | 0.0118 | 0.0048 | -0.0283 | 0.0049 | -0.0168 | 0.0117 | -0.0528 | 0.0289 | 0.037 | 0.0455 | -0.0059 | -0.0122 | 0.0077 | -0.0121 | -0.0108 | 0.0344 | -0.0029 | -0.0024 | 0.0074
4 | Cc1cc2ncnn2cc1Nc1ncc2c(n1)n(C1CCOCC1)c(=O)n2C [AZD7648] + O=C(c1cc(Cc2n[nH]c(=O)c3ccccc23)ccc1F)N1CCN(C(=O)C2CC2)CC1 [Olaparib] (first compound max 10 µM, 7x7, partner max 10 µM) | -0.0367 | -0.0265 | -0.0174 | -0.0306 | -0.054 | -0.0247 | -0.0128 | 0.0073 | -0.067 | -0.0752 | -0.0064 | -0.0616 | 0.0357 | -0.0556 | 0.0328 | -0.0567 | -0.0726 | -0.0158 | 0.0056 | -0.0032
5 | NC1(C(=O)N[C@@H](CCO)c2ccc(Cl)cc2)CCN(c2ncnc3[nH]ccc23)CC1 [Capivasertib] + CC(=O)c1c(C)c2cnc(Nc3ccc(N4CCNCC4)cn3)nc2n(C2CCCC2)c1=O [Palbociclib] (first compound max 10 µM, 7x7, partner max 10 µM) | -0.0242 | 0.0086 | -0.0499 | 0.0171 | -0.0404 | -0.0606 | -0.0216 | -0.0052 | 0.0361 | -0.0024 | -0.0112 | -0.0287 | -0.0134 | -0.0189 | -0.0252 | -0.0758 | -0.0424 | -0.0565 | 0.0198 | -0.0028
6 | NC1(C(=O)N[C@@H](CCO)c2ccc(Cl)cc2)CCN(c2ncnc3[nH]ccc23)CC1 [Capivasertib] + CC(C)n1c(=O)n(C)c2cnc3cc(F)c(-c4ccc(OCCCN5CCCCC5)nc4)cc3c21 [AZD1390] (first compound max 10 µM, 7x7, partner max 0.3 µM) | -0.118 | -0.0376 | -0.0647 | -0.0273 | -0.05 | -0.101 | -0.0261 | 0.002 | -0.0822 | -0.102 | -0.052 | -0.0745 | -0.0659 | -0.0962 | -0.0579 | -0.0828 | -0.0382 | -0.0425 | -0.0908 | -0.0607
7 | NC1(C(=O)N[C@@H](CCO)c2ccc(Cl)cc2)CCN(c2ncnc3[nH]ccc23)CC1 [Capivasertib] + CCN(CCO)CCCOc1ccc2c(Nc3cc(CC(=O)Nc4cccc(F)c4)[nH]n3)ncnc2c1 [AZD2811] (first compound max 10 µM, 7x7, partner max 1 µM) | -0.0213 | -0.0137 | -0.0299 | 0.0272 | -0.033 | -0.105 | 0.0111 | -0.0286 | -0.0088 | -0.0154 | -0.0571 | -0.0515 | -0.0018 | 0.0154 | -0.0446 | 0.0281 | 0.024 | -0.0075 | 0.0423 | 0.0077
